In PubChem BioAssay (NCI):
“And” between values parts separate entries of the source, which are not always exact repeats. Identical values can stand only once.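 Exposure lasted 48 hours, with cells grown in 96-well plates and compounds tested at five concentrations. GI50 = concentration required for 50% inhibition of growth. TGI: total growth inhibition.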

tested on: SN12C renal; experiment: NCI anticancer screen, dose series, 48 h

| SMILES | GI50 | TGI [µM] |
| --- | --- | --- |
| O=[N+]([O-])c1cc([N+](=O)[O-])c(C(F)(F)F)cc1NN=C(c1ccc(O)cc1)c1ccc(O)cc1 | 3.3 µM | 13.4 |
| NCCNCCNCCN | > 100 µM | > 100 |
| c1ccc(Nc2ncc(-c3ccccc3)o2)cc1 | > 25 µM | > 25 |
| COc1ccc(C(c2cc(OC)c(OC)c(OC)c2)n2cncn2)cc1O (centres undefined) | 0.853 µM | > 100 |
| COc1c2ccccc2c(OC)c2[nH]c(=O)ccc12 | 2.13 µM | > 21.2 |
| O=C(O)C(Cl)Cl | 8180 µM and > 10000 µM | > 10000 |
| NC(=S)N/N=C\c1nccc2c(C(F)(F)F)cccc12 | 0.31 µM | 12.4 |
| CC(=O)N[C@@H](Cc1ccc(OP(=O)(O)O)cc1)C(=O)N[C@H]1CCC(=O)N2CCC[C@@H](C(=O)Nc3cccc4ccccc34)N2C1=O | > 25 µM | > 25 |

tested on: SW-620 colon; experiment: NCI anticancer screen, dose series, 48 h

| SMILES | TGI | GI50 [µM] |
| --- | --- | --- |
| Nc1nc2[nH]cc(CCc3ccc(C(=O)N[C@@H](CCC(=O)O)C(=O)O)cc3)c2c(=O)[nH]1 | > 100 µM |  |
| Fc1cc(-c2nnc3n2N=C(c2ccc(Cl)cc2)CS3)c(Cl)cc1Cl | 3 µM | 1.55 |
| COC1=CC(=O)C(C2(OC(C)C)OC(=O)C(Cl)=C2Cl)=CC1=O (centres undefined) | > 100 µM |  |
| CCC(C)SC1SCC2C(=O)N(C)C3(CC3C)C(=O)OCC(NC(=O)c3nc4ccccc4cc3O)C(=O)NC(C)C(=O)N(C)C1C(=O)N(C)C1(CC1C)C(=O)OCC(NC(=O)c1nc3ccccc3cc1O)C(=O)NC(C)C(=O)N2C (centres undefined) | 0.00439 µM and < 0.034 µM |  |
| CN1CCN(C(=O)COc2ccc(C34CC5CC(CC(C5)C3)C4)cc2)CC1 | 29.6 µM | 12.8 |
| COc1ccccc1NC(=O)c1cc2cc(Br)ccc2cc1O | 11.1 µM | 3.12 |
| O=C(Nc1nn2c(-c3cc(C(F)(F)F)cc(C(F)(F)F)c3)nnc2s1)C1CCCC1 | > 100 µM | 1.74 |
| COC(=O)[C@]12CC[C@@H](C)[C@H](C)[C@@H]1C1=CC[C@@H]3[C@@]4(C)C[C@@H](O)[C@H](O)[C@@](C)(CO)[C@@H]4[C@H](O)C[C@@]3(C)[C@]1(C)CC2 | 39.4 µM | 18.8 |
| COCCn1cc(-c2nc(-c3cc4cccnc4[nH]3)cs2)c2cc(OC)ccc21 | > 100 µM | 4.04 |
| O=[N+]([O-])c1cc([N+](=O)[O-])c(C(F)(F)F)cc1NN=C(c1ccc(O)cc1)c1ccc(O)cc1 | 12.3 µM | 3.44 |
| NCCNCCNCCN | > 100 µM | > 100 |
| c1ccc(Nc2ncc(-c3ccccc3)o2)cc1 | > 25 µM | > 25 |
| COc1ccc(C(c2cc(OC)c(OC)c(OC)c2)n2cncn2)cc1O (centres undefined) | > 100 µM | 0.431 |
| COc1c2ccccc2c(OC)c2[nH]c(=O)ccc12 | > 63.4 µM | 4.2 |
| O=C(O)C(Cl)Cl | > 10000 µM | > 10000 |
| NC(=S)N/N=C\c1nccc2c(C(F)(F)F)cccc12 | 17.4 µM | 0.463 |
| CC(=O)N[C@@H](Cc1ccc(OP(=O)(O)O)cc1)C(=O)N[C@H]1CCC(=O)N2CCC[C@@H](C(=O)Nc3cccc4ccccc34)N2C1=O | > 25 µM | > 25 |

tested on: UO-31 renal; experiment: NCI anticancer screen, dose series, 48 h

| SMILES | GI50 | TGI |
| --- | --- | --- |
| Nc1nc2[nH]cc(CCc3ccc(C(=O)N[C@@H](CCC(=O)O)C(=O)O)cc3)c2c(=O)[nH]1 | 0.19 µM | > 100 µM |
| Fc1cc(-c2nnc3n2N=C(c2ccc(Cl)cc2)CS3)c(Cl)cc1Cl | 2.99 µM | > 20.5 µM |
| COC1=CC(=O)C(C2(OC(C)C)OC(=O)C(Cl)=C2Cl)=CC1=O (centres undefined) |  | > 100 µM |
| CCC(C)SC1SCC2C(=O)N(C)C3(CC3C)C(=O)OCC(NC(=O)c3nc4ccccc4cc3O)C(=O)NC(C)C(=O)N(C)C1C(=O)N(C)C1(CC1C)C(=O)OCC(NC(=O)c1nc3ccccc3cc1O)C(=O)NC(C)C(=O)N2C (centres undefined) |  | 0.0127 µM |
| CN1CCN(C(=O)COc2ccc(C34CC5CC(CC(C5)C3)C4)cc2)CC1 | 12.4 µM | 25 µM |
| COc1ccccc1NC(=O)c1cc2cc(Br)ccc2cc1O | 1.57 µM | 7.85 µM |
| O=C(Nc1nn2c(-c3cc(C(F)(F)F)cc(C(F)(F)F)c3)nnc2s1)C1CCCC1 | 0.402 µM | 5.57 µM |
| COC(=O)[C@]12CC[C@@H](C)[C@H](C)[C@@H]1C1=CC[C@@H]3[C@@]4(C)C[C@@H](O)[C@H](O)[C@@](C)(CO)[C@@H]4[C@H](O)C[C@@]3(C)[C@]1(C)CC2 | 6.3 µM | 29.8 µM |
| COCCn1cc(-c2nc(-c3cc4cccnc4[nH]3)cs2)c2cc(OC)ccc21 | 1.84 µM | 11 µM |
| O=[N+]([O-])c1cc([N+](=O)[O-])c(C(F)(F)F)cc1NN=C(c1ccc(O)cc1)c1ccc(O)cc1 | 3.15 µM | 13.3 µM |
| NCCNCCNCCN | > 100 µM | > 100 µM |
| c1ccc(Nc2ncc(-c3ccccc3)o2)cc1 | 9.95 µM | > 25 µM |
| COc1ccc(C(c2cc(OC)c(OC)c(OC)c2)n2cncn2)cc1O (centres undefined) | 0.903 µM | > 100 µM |
| COc1c2ccccc2c(OC)c2[nH]c(=O)ccc12 | 8.13 µM | 97.3 µM |
| O=C(O)C(Cl)Cl | 2090 µM and > 6870 µM | 5010 µM and > 9340 µM |
| NC(=S)N/N=C\c1nccc2c(C(F)(F)F)cccc12 | 0.245 µM | 3.11 µM |
| CC(=O)N[C@@H](Cc1ccc(OP(=O)(O)O)cc1)C(=O)N[C@H]1CCC(=O)N2CCC[C@@H](C(=O)Nc3cccc4ccccc34)N2C1=O | > 21.4 µM | > 25 µM |
